Results from article PMC6151550, “Inhibitory Effect of Selaginellins from Selaginella tamariscina (Beauv.) Spring against Cytochrome P450 and Uridine 5′-Diphosphoglucuronosyltransferase Isoforms on Human Liver Microsomes” (Molecules : A Journal of Synthetic Chemistry and Natural …, 2017).

Legend:
Assay type in all cases: in vitro ADME
CYP2C19 = biological target: T1, CYP2C19 (Homo sapiens, UniProt P33261); experiment: CYP2C19 inhibition (omeprazole 5-hydroxylase) in human liver microsomes, substrate cocktail LC-MS/MS
T1 construct: the incubation mixtures containing pooled HLMs (0.25 mg/mL, H2630, Xenotech); tissue Xenotech H2630; host or cells: pooled human liver microsomes
T1 sequence (P33261 whole entry): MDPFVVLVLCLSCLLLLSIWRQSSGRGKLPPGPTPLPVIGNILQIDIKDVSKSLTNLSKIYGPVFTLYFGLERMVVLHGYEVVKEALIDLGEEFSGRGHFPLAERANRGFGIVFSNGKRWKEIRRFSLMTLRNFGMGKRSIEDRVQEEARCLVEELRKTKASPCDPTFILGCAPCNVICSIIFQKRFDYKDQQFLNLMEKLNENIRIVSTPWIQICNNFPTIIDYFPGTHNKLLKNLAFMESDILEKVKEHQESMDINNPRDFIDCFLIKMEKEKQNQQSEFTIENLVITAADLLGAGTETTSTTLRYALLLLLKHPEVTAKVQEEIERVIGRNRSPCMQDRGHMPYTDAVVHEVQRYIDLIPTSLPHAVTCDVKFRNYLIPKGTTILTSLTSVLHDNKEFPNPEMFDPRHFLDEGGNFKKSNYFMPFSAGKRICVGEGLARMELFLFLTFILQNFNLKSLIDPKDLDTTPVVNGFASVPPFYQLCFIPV
Method: (§1) The inhibitory effects of two selaginellins on the metabolism of ten P450 probe substrates were evaluated using previously reported method with minor modification. Phenacetin O-deethylase, coumarin 7-hydroxylase, bupropion 4-hydroxylase, amodiaquine N-deethylase, tolbutamide 4-hydroxylase, omeprazole 5-hydroxylase, dextromethorphan O-demethylase, chlorzoxazone 6-hydroxylase and midazolam 1′-hydroxylase activities were determined as probe activities for CYP1A2, CYP2A6, CYP2B6, CYP2C8, CYP2C9, CYP2C19, CYP2D6, CYP2E1 and […], respectively, using substrate cocktail incubation and tandem mass spectrometry (Table 2). Selaginellins were dissolved in methanol. The final concentrations of organic solvent (methanol) for the cocktail incubation conditions in all experiments were 1.0% (v/v). In brief, the incubation mixtures containing pooled HLMs (0.25 mg/mL, H2630, Xenotech), P450 probe substrate cocktail, and inhibitor (0, 0.5, 2, 5, 20 and 50 μM) were preincubated at 37 °C for 5 min. […] After mixing and centrifugation, aliquots were analyzed by liquid chromatography-tandem mass spectrometry (LC-MS/MS) as previous described. The CYP2J2 inhibitory effects of two selaginellins were also evaluated in pooled HLMs using previously reported method. […]

CYP2A6 = biological target: T2, CYP2A6 (Homo sapiens, UniProt P11509); experiment: CYP2A6 inhibition (coumarin 7-hydroxylase) in human liver microsomes, substrate cocktail LC-MS/MS
T2 construct: the incubation mixtures containing pooled HLMs (0.25 mg/mL, H2630, Xenotech); tissue Xenotech H2630; host or cells: pooled human liver microsomes
T2 sequence (P11509 1-494): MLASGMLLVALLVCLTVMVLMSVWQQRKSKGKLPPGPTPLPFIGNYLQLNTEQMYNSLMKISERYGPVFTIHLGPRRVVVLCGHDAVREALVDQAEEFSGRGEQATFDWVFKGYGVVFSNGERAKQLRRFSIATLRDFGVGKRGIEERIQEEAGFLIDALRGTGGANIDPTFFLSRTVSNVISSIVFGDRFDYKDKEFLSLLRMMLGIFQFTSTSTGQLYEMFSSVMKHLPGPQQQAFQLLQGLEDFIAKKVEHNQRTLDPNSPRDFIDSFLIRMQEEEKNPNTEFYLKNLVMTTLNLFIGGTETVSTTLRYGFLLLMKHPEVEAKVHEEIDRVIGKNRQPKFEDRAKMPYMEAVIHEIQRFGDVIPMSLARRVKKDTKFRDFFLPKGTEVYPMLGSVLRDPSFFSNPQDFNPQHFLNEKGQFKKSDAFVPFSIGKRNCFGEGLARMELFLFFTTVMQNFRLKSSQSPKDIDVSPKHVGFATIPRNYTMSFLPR
Method: as §1

UGT1A6 = biological target: T3, UGT1A6 (Homo sapiens, UniProt P19224); experiment: UGT1A6 inhibition (N-acetylserotonin glucuronidation) in human liver microsomes, cocktail LC-MS/MS
T3 construct: from tissue; host or cells: human liver microsomes
T3 sequence (P19224 27-532): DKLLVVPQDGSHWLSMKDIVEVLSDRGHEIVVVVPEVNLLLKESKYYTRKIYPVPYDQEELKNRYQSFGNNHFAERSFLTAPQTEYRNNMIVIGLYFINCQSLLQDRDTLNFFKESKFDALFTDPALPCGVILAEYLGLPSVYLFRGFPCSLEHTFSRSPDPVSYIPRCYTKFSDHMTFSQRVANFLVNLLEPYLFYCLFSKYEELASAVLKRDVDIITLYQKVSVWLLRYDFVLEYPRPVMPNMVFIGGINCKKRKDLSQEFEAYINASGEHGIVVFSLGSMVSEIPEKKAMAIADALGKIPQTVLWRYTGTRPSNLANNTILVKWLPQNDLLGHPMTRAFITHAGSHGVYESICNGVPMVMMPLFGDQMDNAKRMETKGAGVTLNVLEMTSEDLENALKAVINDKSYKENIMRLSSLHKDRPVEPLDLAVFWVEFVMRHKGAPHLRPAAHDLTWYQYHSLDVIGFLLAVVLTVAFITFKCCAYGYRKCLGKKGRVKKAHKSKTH
Method: (§2) The inhibitory effects of two selaginellins on the metabolism of six UGT probe substrates were evaluated using previously reported method with minor modification. In brief, HLMs (0.25 mg/mL) were activated by incubation in the presence of alamethicin (25 μg/mL) for 15 min on ice. After the addition of UGT isoform-selective substrates and selaginellins (0, 0.5, 2, 5, 20 and 50 μM) the final concentrations of organic solvent (methanol) for the cocktail incubation conditions were 1.0% (v/v). The incubation reaction mixtures were pre-incubated for 5 min. The reaction was initiated by the addition of 5 mM UDPGA and further incubated for 60 min. All reactions were terminated by adding ice-cold acetonitrile containing estrone glucuronide (IS). After mixing and centrifugation, aliquots were injected into a LC-MS/MS as described previously (Table 2). All microsomal incubations were performed in triplicate.
(§3) The IC50 values (concentration of the inhibitor causing 50% inhibition of the original enzyme activity) were calculated using WinNonlin software (Pharsight, Mountain View, CA, USA): percentage of control activity = 100 × [1 − (I/(I + IC50))], where I is the inhibitor concentration, and IC50 is the inflection point on the curve.

UGT1A9 = biological target: T4, UGT1A9 (Homo sapiens, UniProt O60656); experiment: UGT1A9 inhibition (mycophenolic acid glucuronidation) in human liver microsomes, cocktail LC-MS/MS
T4 construct: from tissue; host or cells: human liver microsomes
T4 sequence (O60656 26-530): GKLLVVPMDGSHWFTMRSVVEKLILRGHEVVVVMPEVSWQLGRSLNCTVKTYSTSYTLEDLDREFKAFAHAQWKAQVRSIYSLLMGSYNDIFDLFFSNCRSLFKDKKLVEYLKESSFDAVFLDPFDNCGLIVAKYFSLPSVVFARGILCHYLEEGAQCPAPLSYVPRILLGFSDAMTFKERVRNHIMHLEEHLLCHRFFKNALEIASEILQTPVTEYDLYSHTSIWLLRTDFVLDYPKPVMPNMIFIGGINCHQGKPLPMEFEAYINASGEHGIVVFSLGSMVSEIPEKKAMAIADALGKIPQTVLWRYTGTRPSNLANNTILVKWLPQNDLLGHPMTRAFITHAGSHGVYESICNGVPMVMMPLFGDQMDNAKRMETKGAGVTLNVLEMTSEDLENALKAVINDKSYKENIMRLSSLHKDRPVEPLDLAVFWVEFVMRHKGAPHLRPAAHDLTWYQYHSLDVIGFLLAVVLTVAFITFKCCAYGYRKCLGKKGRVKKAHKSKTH
Method: as §2, §3

Which results are given for `COc1ccc(C(=C2C=CC(=O)C=C2)c2c(-c3ccc(O)cc3)ccc(CO)c2C#Cc2ccc(O)cc2)cc1` [Selaginellin M]?
IC50 (CYP2C19): 16.1 µM; IC50 (CYP2A6): > 50 µM; IC50 (UGT1A6): 36.5 µM; IC50 (UGT1A9): 6.5 µM

What does the source list for `O=C1C=CC(=C(c2ccc(O)cc2)c2c(-c3ccc(O)cc3)ccc(CO)c2C#Cc2ccc(O)cc2)C=C1` [Selaginellin]?
IC50 (CYP2C19): 10 µM; IC50 (CYP2A6): > 50 µM; IC50 (UGT1A6): 25.3 µM; IC50 (UGT1A9): 8.7 µM
